# Laboratory results from patent publication US20070202047A1, “Polyamine-substituted ligands for use as contrast agents” (priority 2006, published 2007).
# Legend:
# human serum albumin = biological target: T1, human serum albumin (Homo sapiens, UniProt P02768); test: Serum albumin binding (ultrafiltration, ICP-MS); format: in vitro ADME; conditions: 20 μM complex, 40 g/L HSA, 37° C.; for binding of complex to human serum albumin: 30 or 90 min
# T1 construct: purchased Behring, Bern, Switzerland
# T1 sequence (P02768 25-609): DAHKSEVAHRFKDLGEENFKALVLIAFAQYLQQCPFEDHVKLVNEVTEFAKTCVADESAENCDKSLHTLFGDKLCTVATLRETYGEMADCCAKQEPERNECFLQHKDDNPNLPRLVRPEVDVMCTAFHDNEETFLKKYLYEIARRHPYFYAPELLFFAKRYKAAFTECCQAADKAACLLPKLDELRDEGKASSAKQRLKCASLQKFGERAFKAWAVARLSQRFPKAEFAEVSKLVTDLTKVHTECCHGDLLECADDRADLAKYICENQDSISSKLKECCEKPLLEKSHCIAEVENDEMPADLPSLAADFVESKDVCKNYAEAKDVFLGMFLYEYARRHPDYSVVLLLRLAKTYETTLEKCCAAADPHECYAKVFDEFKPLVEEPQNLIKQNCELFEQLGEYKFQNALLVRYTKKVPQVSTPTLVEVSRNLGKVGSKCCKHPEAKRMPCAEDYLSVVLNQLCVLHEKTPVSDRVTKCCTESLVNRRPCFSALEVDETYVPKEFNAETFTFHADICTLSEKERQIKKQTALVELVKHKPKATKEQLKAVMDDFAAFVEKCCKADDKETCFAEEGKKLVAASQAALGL
# Protocol: Serum albumin binding. Solutions containing 20 μM Gd-3.1., Gd-5.1. or Gd-6.1. and 40 g/L human serum albumin (Behring, Bern, Switzerland) were incubated at 37° C. for 30 or 90 min. The solutions were subjected to ultrafiltration (filter cutoff 20 kD; Sartorius, Göttingen, Germany), and the amount of unbound complex was determined in the ultrafiltrate with ICP-MS (n=2).
# HSA Binding: 20 μM solutions of the complexes were incubated at 37° C. for 30 and 90 minutes in a solution of 40 g HSA/L (Behring, Bern; Switzerland). The amount of unbound complex was determined in ultrafiltrates with ICP-MS.
# [1] = Relaxivity measurements in PBS solution; format: physicochemical; conditions: 37° C.; for longitudinal relaxation rate R1(Gd): 250 MHz (5.4 T); for molar chemical shift Δδ(Gd): H2O signal relative to external HDO; for molar chemical shift Δδ(Gd) / molar relaxivity r1: 250 MHz; for molar relaxivity r1: PBS
# Protocol: Relaxivity Measurements. A phosphate-buffered saline (PBS, pH 7.4) reference solution and solutions of the Gd complexes Gd-3.1. (60 mM), Gd-5.1. (60 mM), and Gd-6.1. […] Each capillary was then inserted into a standard 5-mm NMR tube containing D2O (99.96% D) for ^1H relaxation rate measurements at 250 MHz (5.4 T, Bruker AC-250 spectrometer) and 37° C. using the inversion-recovery method. The relaxation rates R1 were determined by a three-parameter nonlinear least-squares fit of the intensity data to the equation M(τ)=M0[1−2q exp(−R1τ)] with 8-11 τ values. The transverse relaxation rate R2 was estimated from the H2O signal linewidth Δν at half height (R2=πΔν). The standard error of estimate for R1 was <0.7% for all samples. The relaxivities were estimated as r1 [s^−1 mM^−1]=[R1(Gd)−R1(0)]/[Gd], where [Gd] is the concentration of Gd complex in the sample with relaxation rate R1(Gd), and R1(0) is the rate for the reference sample of PBS. Analogous calculations were made for r2 from R2.
# For the ^1H relaxation rate measurements at 250 MHz (5.4 T, Bruker AC-250 spectrometer) and 37° C., sample temperature was regulated to better than ±0.1° C. using the variable temperature unit of the spectrometer. The solutions studied were placed in capillaries to reduce the sample volume and the resulting intensity of the H2O signal, thus avoiding the influences of radiation damping on the relaxation behavior. The D2O solution added to the 5-mm NMR tube provided a field/frequency lock signal and residual HDO as a reference signal. An inversion-recovery pulse sequence (RD-180°-τ-90°-acquisition) was executed with a composite 180° pulse of constant phase, four-step phase cycling of the 90° pulse (7.3 μs) for four transients, and 8-11 τ values. For each sample the list of τ values was chosen after determining the approximate τnull for the “null” point of the recovery curve by trial measurements, and the delay RD was set to at least 10τnull. The resulting spectra were phase and baseline corrected manually, and the H2O signal intensity was determined by the peak picking algorithm of the NMR software.
# The relaxation rates R1 were determined by a three-parameter nonlinear least-squares fit of the intensity data to the equation M(τ)=M0[1−2q exp(−R1τ)], where q was an additional fitting parameter used to account for the quality of spin inversion. The theoretical value of q is 1.0, and the fitted values were in the range 0.92-0.95. The transverse relaxation rate R2 was estimated from the H2O signal linewidth Δν at half height (R2=πΔν), and the chemical shift Δδ(Gd) of the H2O signal from the capillary relative to the HDO signal from the external D2O was determined as an additional measure of the paramagnetism of the Gd complex. The standard error of estimate for R1was <0.7% for all samples. The relaxivities were estimated as r1 […]=[R1(Gd)−R1(0)]/[Gd], where [Gd] is the concentration of Gd complex in the sample with relaxation rate R1(Gd), and R1(0) is the rate for the reference sample of PBS. Analogous calculations were made for r2 from R2 and for Δδ(Gd).
complex found to be free (unbound) (human serum albumin; ultrafiltrate) [%],longitudinal relaxation rate R1(Gd) ([1]; 60 mM in PBS) [s⁻¹],molar chemical shift Δδ(Gd) [1] [ppm mM-^−1],molar relaxivity r1 [1] [s⁻¹ mM⁻¹],longitudinal relaxation rate R1(Gd) ([1]; 30 mM in PBS) [s⁻¹],SMILES,binding of complex to human serum albumin (human serum albumin)
93±6,469 ± 2,0.125,7.8,–,CCN(CC)CCNC(=O)CN(CCN(CCN(CC(=O)[O-])CC(=O)N(CCN)CCN)CC(=O)[O-])CC(=O)[O-].[Gd+3] [Gd-3.1],no significant binding of complex to protein
–,137.9 ± 0.2,0.045,2.3,–,NCCN(CCN)C(=O)CN(CCN(CCN(CC(=O)[O-])CC(=O)N(CCN)CCN)CC(=O)[O-])CC(=O)[O-].[Gd+3] [Gd-5.1],no significant binding of complex to protein
–,–,0.161,6.5,194.5 ± 0.9,NCCCCN(CCCN)C(=O)CN(CCN(CCN(CC(=O)[O-])CC(=O)N(CCCN)CCCCN)CC(=O)[O-])CC(=O)[O-].[Gd+3] [Gd-6.1],no significant binding of complex to protein
